Tests used:
Test in all cases: cell-based
Parameters in all cases: PathHunter eXpress functional assay (DiscoverX tkMAX), inhibition of reference ligand response
Conditions in all cases: read-out: % Inhibition of reference binding (Table 3)
[1] = target: IGF1R (Homo sapiens, UniProt P08069)
[2] = target: PDGFRa (Homo sapiens, UniProt P16234)
[3] = target: EphA7 (Homo sapiens, UniProt Q15375)
[4] = target: EphB2 (Homo sapiens, UniProt P29323)
[5] = target: EphB3 (Homo sapiens, UniProt P54753)
[6] = target: DDR1 (Homo sapiens, UniProt Q08345)
[7] = target: T1, INSRb (Homo sapiens, UniProt P06213)
T1 construct: gene INSR; isoform b

[8] = target: PDGFRb (Homo sapiens, UniProt P09619)
[9] = target: FLT4 (Homo sapiens, UniProt P35916)
[10] = target: EphB4 (Homo sapiens, UniProt P54760)
[11] = target: T2, ErbB1 (Homo sapiens, UniProt P00533)
T2 construct: gene EGFR
T2 sequence (P00533 whole entry): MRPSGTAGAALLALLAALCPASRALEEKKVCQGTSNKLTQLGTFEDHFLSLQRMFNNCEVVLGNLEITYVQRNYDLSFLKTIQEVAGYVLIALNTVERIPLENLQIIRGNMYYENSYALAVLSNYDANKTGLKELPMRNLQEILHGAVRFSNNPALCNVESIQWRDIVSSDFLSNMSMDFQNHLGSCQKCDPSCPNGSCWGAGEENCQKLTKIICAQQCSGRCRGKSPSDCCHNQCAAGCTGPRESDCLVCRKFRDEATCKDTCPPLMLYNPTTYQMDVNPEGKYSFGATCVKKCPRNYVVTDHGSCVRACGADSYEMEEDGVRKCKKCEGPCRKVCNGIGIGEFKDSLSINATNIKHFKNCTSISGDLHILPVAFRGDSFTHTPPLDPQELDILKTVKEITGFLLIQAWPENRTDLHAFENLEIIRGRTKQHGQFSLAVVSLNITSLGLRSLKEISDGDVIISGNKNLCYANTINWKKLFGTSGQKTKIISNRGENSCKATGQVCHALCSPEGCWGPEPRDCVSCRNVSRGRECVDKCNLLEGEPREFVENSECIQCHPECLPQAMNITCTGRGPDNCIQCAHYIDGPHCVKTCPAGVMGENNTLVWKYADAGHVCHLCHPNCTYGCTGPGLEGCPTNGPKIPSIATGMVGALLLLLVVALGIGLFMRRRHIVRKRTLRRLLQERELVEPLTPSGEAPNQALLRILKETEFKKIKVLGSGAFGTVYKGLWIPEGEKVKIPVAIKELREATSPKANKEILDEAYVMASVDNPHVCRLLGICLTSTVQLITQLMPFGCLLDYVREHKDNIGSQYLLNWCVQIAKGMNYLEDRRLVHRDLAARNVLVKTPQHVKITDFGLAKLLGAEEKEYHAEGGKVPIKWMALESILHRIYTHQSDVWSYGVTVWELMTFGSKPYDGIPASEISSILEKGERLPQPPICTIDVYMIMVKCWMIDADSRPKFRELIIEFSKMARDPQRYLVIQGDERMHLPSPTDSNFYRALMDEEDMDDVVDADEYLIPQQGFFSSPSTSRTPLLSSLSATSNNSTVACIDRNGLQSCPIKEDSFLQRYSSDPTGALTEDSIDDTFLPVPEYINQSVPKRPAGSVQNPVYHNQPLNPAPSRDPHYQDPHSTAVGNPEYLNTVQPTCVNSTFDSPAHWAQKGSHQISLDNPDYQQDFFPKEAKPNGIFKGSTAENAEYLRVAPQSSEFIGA

[12] = target: c-KIT (Homo sapiens, UniProt P10721)
[13] = target: KDR (Homo sapiens, UniProt P35968)
[14] = target: ErbB4 (Homo sapiens, UniProt Q15303)
ErbB4, sequence (Q15303 whole entry): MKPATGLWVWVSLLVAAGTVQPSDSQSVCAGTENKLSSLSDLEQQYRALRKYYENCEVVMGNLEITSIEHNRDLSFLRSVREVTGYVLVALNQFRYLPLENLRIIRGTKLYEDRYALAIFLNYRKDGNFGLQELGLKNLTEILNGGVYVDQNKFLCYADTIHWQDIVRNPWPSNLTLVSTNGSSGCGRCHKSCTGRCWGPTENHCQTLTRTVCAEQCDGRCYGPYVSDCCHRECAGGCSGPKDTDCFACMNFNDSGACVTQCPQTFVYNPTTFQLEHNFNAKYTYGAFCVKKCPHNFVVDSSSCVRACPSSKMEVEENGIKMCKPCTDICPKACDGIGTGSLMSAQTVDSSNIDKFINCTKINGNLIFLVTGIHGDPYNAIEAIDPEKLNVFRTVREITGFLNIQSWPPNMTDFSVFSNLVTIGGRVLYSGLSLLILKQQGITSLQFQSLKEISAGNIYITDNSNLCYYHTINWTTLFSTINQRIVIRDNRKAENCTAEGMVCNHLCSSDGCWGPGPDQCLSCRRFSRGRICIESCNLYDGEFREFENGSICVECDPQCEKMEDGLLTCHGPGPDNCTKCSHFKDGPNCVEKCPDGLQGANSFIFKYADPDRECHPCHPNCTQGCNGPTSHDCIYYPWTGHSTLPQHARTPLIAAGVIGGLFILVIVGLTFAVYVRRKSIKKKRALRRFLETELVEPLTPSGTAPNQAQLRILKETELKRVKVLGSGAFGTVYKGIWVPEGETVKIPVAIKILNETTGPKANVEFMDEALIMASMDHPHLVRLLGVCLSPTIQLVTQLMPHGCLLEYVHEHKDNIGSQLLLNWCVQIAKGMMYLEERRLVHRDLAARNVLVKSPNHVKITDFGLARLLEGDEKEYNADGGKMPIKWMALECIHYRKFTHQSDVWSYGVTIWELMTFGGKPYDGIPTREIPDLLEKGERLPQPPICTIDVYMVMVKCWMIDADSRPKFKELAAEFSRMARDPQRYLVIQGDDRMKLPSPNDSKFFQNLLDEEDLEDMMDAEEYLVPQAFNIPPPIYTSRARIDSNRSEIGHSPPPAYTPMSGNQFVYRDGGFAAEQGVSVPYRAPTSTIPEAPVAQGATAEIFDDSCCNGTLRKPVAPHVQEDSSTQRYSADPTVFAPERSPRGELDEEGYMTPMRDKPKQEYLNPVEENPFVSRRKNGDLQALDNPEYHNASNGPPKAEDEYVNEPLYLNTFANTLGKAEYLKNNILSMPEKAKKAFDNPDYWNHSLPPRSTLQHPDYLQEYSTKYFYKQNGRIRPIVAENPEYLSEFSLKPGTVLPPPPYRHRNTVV

PDGFRa, sequence (P16234 whole entry): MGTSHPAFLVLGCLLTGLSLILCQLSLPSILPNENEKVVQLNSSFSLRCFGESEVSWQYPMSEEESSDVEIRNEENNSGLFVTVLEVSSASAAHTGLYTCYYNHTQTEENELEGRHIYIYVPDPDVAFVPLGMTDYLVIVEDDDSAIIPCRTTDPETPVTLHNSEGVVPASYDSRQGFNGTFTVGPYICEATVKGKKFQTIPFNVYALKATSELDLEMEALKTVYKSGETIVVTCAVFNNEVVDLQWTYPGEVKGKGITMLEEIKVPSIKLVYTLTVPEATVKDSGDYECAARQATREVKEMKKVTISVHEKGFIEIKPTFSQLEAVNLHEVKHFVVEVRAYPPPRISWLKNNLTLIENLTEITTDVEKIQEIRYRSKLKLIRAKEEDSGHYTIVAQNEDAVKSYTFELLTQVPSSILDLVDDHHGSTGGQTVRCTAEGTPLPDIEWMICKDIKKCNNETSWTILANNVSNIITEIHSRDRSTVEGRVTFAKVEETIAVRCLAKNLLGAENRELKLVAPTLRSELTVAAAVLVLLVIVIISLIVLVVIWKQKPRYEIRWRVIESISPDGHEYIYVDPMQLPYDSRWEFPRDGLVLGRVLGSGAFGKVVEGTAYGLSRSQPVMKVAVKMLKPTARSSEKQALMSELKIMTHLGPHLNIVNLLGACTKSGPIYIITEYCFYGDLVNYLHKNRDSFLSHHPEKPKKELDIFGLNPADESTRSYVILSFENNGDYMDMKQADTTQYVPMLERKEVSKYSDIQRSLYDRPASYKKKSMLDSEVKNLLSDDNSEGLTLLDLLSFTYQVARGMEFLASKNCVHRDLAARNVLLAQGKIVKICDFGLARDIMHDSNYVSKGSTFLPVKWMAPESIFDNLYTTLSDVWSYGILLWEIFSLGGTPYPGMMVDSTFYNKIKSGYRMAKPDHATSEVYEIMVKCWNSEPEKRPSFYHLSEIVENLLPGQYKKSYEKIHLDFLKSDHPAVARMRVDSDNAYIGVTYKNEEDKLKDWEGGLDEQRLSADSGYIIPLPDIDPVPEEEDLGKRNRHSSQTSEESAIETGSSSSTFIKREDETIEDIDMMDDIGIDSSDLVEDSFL
EphA7, sequence (Q15375 whole entry): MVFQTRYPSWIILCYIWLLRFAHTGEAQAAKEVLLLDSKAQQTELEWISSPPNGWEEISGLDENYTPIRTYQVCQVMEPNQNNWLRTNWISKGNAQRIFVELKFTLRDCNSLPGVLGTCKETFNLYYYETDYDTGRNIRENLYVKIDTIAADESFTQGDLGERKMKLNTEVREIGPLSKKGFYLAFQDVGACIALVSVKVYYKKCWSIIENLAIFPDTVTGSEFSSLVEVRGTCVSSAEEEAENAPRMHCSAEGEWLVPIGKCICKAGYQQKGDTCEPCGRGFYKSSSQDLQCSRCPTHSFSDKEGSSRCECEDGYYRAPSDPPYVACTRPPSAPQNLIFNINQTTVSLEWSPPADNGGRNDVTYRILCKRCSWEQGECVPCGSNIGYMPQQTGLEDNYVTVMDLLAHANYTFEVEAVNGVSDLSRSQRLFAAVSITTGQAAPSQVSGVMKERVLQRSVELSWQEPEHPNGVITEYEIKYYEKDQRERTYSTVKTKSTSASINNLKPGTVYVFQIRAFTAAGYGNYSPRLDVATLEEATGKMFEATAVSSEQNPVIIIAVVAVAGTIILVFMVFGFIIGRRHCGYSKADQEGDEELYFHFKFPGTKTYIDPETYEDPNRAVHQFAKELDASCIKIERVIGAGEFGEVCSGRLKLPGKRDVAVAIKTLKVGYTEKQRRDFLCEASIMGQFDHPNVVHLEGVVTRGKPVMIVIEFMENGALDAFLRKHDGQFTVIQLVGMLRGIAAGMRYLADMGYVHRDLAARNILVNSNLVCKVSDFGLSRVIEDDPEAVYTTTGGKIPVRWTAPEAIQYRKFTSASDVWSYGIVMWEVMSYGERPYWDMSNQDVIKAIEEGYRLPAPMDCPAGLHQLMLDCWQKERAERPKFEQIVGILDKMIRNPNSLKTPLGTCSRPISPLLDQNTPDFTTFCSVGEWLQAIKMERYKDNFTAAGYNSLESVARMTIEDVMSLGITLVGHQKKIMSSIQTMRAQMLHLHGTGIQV

- inhibition at 10 µM [1]: 10.1%
- inhibition at 10 µM [2]: 2.2%
- inhibition at 10 µM [3]: 4.3%
- inhibition at 10 µM [4]: 1.4%
- inhibition at 10 µM [5]: 2.8%
- inhibition at 10 µM [6]: -0.7%
- inhibition at 10 µM [7]: 10%
- inhibition at 10 µM [8]: 4.2%
- inhibition at 10 µM [9]: 16.8%
- inhibition at 10 µM [10]: 22.7%
- inhibition at 10 µM [11]: 8.7%
- inhibition at 10 µM [12]: 7.8%
- inhibition at 10 µM [13]: -3.1%
- inhibition at 10 µM [14]: -0.1%
SMILES: O=C(Nc1cc(Cl)ccc1O)c1cccc(S(=O)(=O)N2CCCCC2)c1 [compound 66, BDT001]
